# Results published in US20100069458A1, “COMBINATION OF LBH589 WITH OTHER THERAPEUTIC AGENTS FOR TREATING CANCER” (priority 2007, published 2010).
# Read-outs that look alike come from different tables or passages of the source.
# Columns and labels:
# U937 cells = test: Apoptosis; format: cell-based, human; details: 20 to 50 nM, dose-dependently
# [1] = Loss of viability, trypan blue uptake; format: cell-based; details: human, Normal CD34+ cells
# K562 cells [2] = test: Apoptosis; details: 50-100 nM
# Protocol: FIG. 2 Analysis of dose effect relationship for AUY922 and LBH589 for the apoptotic effects after 48 hours of exposure was done according to the median effect of Chou and Talalay.
# primary AML cells = test: Loss of viability, trypan blue uptake; format: cell-based; details: Homo sapiens
# MV4-11 cells [3] = test: Cell cycle status, propidium iodide flow cytometry; format: cell-based, human; details: for % of cells G0/G1 / % of cells G2/M / % of cells S: MV4-11, 24 hours, mean ± S.E.M.
# [4] = test system: Bcr-Abl, p-STAT5, p-CrkL, AKT levels in K562 cells; test: hsp90 client protein levels; format: cell-based, human; details: 50-100 nM of AUY922
# primary CML cells = test: Loss of viability, trypan blue uptake; format: cell-based; details: Homo sapiens, 48 h
# K562 cells [5] = test: Cell cycle status, propidium iodide flow cytometry; format: cell-based, human; details: for % of cells G0/G1 / % of cells G2/M / % of cells S: K562, 24 hours, mean ± S.E.M.
# [6] = test system: FLT-3, p-STAT5, AKT, CDK4, hsp70 levels in MV4-11 cells; test: hsp90 client protein levels; format: cell-based, human; details: AUY922 alone
# MV4-11 cells [7] = test: Apoptosis, annexin V flow cytometry; details: 20 to 50 nM, dose-dependently, FIG. 1
# Protocol: Following this, the percentages of annexin V-positive apoptotic cells were determined by flow cytometry. Values represent the mean±S.E.M. of three experiments.
# [8] = test system: hsp90 chaperone function in CML cells; details: previous studies, cited from earlier work
smiles,measurement,setting,value
"CCNC(=O)c1noc(-c2cc(C(C)C)c(O)cc2O)c1-c1ccc(CN2CCOCC2)cc1 [AUY922, 5-(2,4-Dihydroxy-5-isopropyl-phenyl)-4-(4-morpholin-4-ylmethyl-phenyl)-isoxazole-3-carboxylic acid ethylamide]","induced apoptosis, % of cells",U937 cells,40-60%
same,"cytotoxicity at 48 h, 20 nmol/L","[1]; 20 nmol/L AUY922, read-out: % non-viable cells",30.8%
same,"cytotoxicity at 48 h, 50 nmol/L","[1]; 50 nmol/L AUY922, read-out: % non-viable cells",31.6%
same,"induced apoptosis, % of cells",K562 cells [2],30-50%
same,cytotoxicity at 0.02 µM,"primary AML cells; 48 h, AML#2, 20 nmol/L AUY922, read-out: % non-viable cells",54%
same,cytotoxicity at 0.05 µM,"primary AML cells; 48 h, AML#2, 50 nmol/L AUY922, read-out: % non-viable cells",58.9%
same,cytotoxicity at 0.02 µM,"primary AML cells; 48 h, AML#4, 20 nmol/L AUY922, read-out: % non-viable cells",43.2%
same,cytotoxicity at 0.05 µM,"primary AML cells; 48 h, AML#4, 50 nmol/L AUY922, read-out: % non-viable cells",50%
same,cytotoxicity at 0.02 µM,"primary AML cells; 48 h, AML#5, 20 nmol/L AUY922, read-out: % non-viable cells",32.1%
same,cytotoxicity at 0.05 µM,"primary AML cells; 48 h, AML#5, 50 nmol/L AUY922, read-out: % non-viable cells",27.7%
same,cytotoxicity at 0.02 µM,"primary AML cells; 48 h, AML#6, 20 nmol/L AUY922, read-out: % non-viable cells",11.9%
same,cytotoxicity at 0.05 µM,"primary AML cells; 48 h, AML#6, 50 nmol/L AUY922, read-out: % non-viable cells",21.4%
same,cytotoxicity at 0.02 µM,"primary AML cells; 48 h, AML#7 CD34 enriched, 20 nmol/L AUY922, read-out: % non-viable cells",70.1%
same,cytotoxicity at 0.05 µM,"primary AML cells; 48 h, AML#7 CD34 enriched, 50 nmol/L AUY922, read-out: % non-viable cells",70.9%
same,cytotoxicity at 0.02 µM,"primary AML cells; AML1, 48 h, AML#1, 20 nmol/L AUY922, read-out: % non-viable cells",38.8%
same,cytotoxicity at 0.05 µM,"primary AML cells; AML1, 48 h, AML#1, 50 nmol/L AUY922, read-out: % non-viable cells",45.1%
same,cytotoxicity at 0.02 µM,"primary AML cells; AML3, 48 h, AML#3, 20 nmol/L AUY922, read-out: % non-viable cells",40.1%
same,cytotoxicity at 0.05 µM,"primary AML cells; AML3, 48 h, AML#3, 50 nmol/L AUY922, read-out: % non-viable cells",42.7%
same,% of cells G0/G1,MV4-11 cells [3]; 5 nM,62.23 ± 0.33%
same,% of cells G2/M,MV4-11 cells [3]; 5 nM,6.02 ± 0.74%
same,% of cells S,MV4-11 cells [3]; 5 nM,31.74 ± 0.42%
same,% of cells G0/G1,MV4-11 cells [3]; 10 nM,63.54 ± 1.20%
same,% of cells G2/M,MV4-11 cells [3]; 10 nM,6.30 ± 0.92%
same,% of cells S,MV4-11 cells [3]; 10 nM,30.16 ± 0.39%
same,% of cells G0/G1,MV4-11 cells [3]; 20 nM,85.71 ± 2.14%
same,% of cells G2/M,MV4-11 cells [3]; 20 nM,5.30 ± 0.71%
same,% of cells S,MV4-11 cells [3]; 20 nM,8.98 ± 2.41%
same,% of cells G0/G1,MV4-11 cells [3]; 50 nM,79.57 ± 1.15%
same,% of cells G2/M,MV4-11 cells [3]; 50 nM,11.96 ± 1.26%
same,% of cells S,MV4-11 cells [3]; 50 nM,8.47 ± 2.30%
same,"accumulation in G1 and G2/M phases, decline in S phase",MV4-11 cells [3]; MV4-11 cells,dose-dependently induced accumulation
same,client protein levels,[4],"depleted Bcr-Abl, p-STAT, p-CrkL and AKT levels"
same,cytotoxicity at 0.02 µM,"primary CML cells; CML#1, 20 nmol/L AUY922, read-out: % non-viable cells",29.1%
same,cytotoxicity at 0.05 µM,"primary CML cells; CML#1, 50 nmol/L AUY922, read-out: % non-viable cells",33.6%
same,cytotoxicity at 0.02 µM,"primary CML cells; CML#2, 20 nmol/L AUY922, read-out: % non-viable cells",9.6%
same,cytotoxicity at 0.05 µM,"primary CML cells; CML#2, 50 nmol/L AUY922, read-out: % non-viable cells",13.9%
same,cytotoxicity at 0.02 µM,"primary CML cells; CML#3, 20 nmol/L AUY922, read-out: % non-viable cells",21.1%
same,cytotoxicity at 0.05 µM,"primary CML cells; CML#3, 50 nmol/L AUY922, read-out: % non-viable cells",25.3%
same,cytotoxicity at 0.02 µM,"primary CML cells; CML#4, 20 nmol/L AUY922, read-out: % non-viable cells",30.5%
same,cytotoxicity at 0.05 µM,"primary CML cells; CML#4, 50 nmol/L AUY922, read-out: % non-viable cells",32.8%
same,% of cells G0/G1,K562 cells [5]; 20 nM,31.04 ± 3.11%
same,% of cells G2/M,K562 cells [5]; 20 nM,8.54 ± 1.16%
same,% of cells S,K562 cells [5]; 20 nM,60.41 ± 2.01%
same,% of cells G0/G1,K562 cells [5]; 50 nM,61.42 ± 5.30%
same,% of cells G2/M,K562 cells [5]; 50 nM,4.43 ± 2.78%
same,% of cells S,K562 cells [5]; 50 nM,34.14 ± 5.01%
same,% of cells G0/G1,K562 cells [5]; 100 nM,58.30 ± 2.87%
same,% of cells G2/M,K562 cells [5]; 100 nM,21.73 ± 2.67%
same,% of cells S,K562 cells [5]; 100 nM,19.97 ± 0.31%
same,% of cells G0/G1,K562 cells [5]; 250 nM,58.10 ± 4.47%
same,% of cells G2/M,K562 cells [5]; 250 nM,21.38 ± 3.07%
same,% of cells S,K562 cells [5]; 250 nM,20.47 ± 1.54%
same,"accumulation in G1 and G2/M phases, decline in S phase",K562 cells [5]; K562 cells,dose-dependently induced accumulation
same,client protein levels,[6],"depletion of FLT-3, p-STAT5, AKT, and CDK4 levels"
same,hsp70 levels,[6],induction of hsp70 levels
same,"induced apoptosis, % of cells",MV4-11 cells [7],40-60%
"Cc1[nH]c2ccccc2c1CCNCc1ccc(/C=C/C(=O)NO)cc1 [LBH589, N-hydroxy-3-[4-[[[2-(2-methyl-1H-indol-3-yl)-ethyl]-amino]methyl]phenyl]-2E-2-propenamide]","cytotoxicity at 48 h, 50 nmol/L","[1]; 50 nmol/L LBH589, read-out: % non-viable cells",23.3%
same,cytotoxicity at 0.05 µM,"primary AML cells; 48 h, AML#2, 50 nmol/L LBH589, read-out: % non-viable cells",54.7%
same,cytotoxicity at 0.05 µM,"primary AML cells; 48 h, AML#4, 50 nmol/L LBH589, read-out: % non-viable cells",53.8%
same,cytotoxicity at 0.05 µM,"primary AML cells; 48 h, AML#5, 50 nmol/L LBH589, read-out: % non-viable cells",61.8%
same,cytotoxicity at 0.05 µM,"primary AML cells; 48 h, AML#6, 50 nmol/L LBH589, read-out: % non-viable cells",17.8%
same,cytotoxicity at 0.05 µM,"primary AML cells; 48 h, AML#7 CD34 enriched, 50 nmol/L LBH589, read-out: % non-viable cells",56.7%
same,cytotoxicity at 0.05 µM,"primary AML cells; AML1, 48 h, AML#1, 50 nmol/L LBH589, read-out: % non-viable cells",80.7%
same,cytotoxicity at 0.05 µM,"primary AML cells; AML3, 48 h, AML#3, 50 nmol/L LBH589, read-out: % non-viable cells",46.3%
same,cytotoxicity at 0.05 µM,"primary CML cells; CML#1, 50 nmol/L LBH589, read-out: % non-viable cells",43.3%
same,cytotoxicity at 0.05 µM,"primary CML cells; CML#2, 50 nmol/L LBH589, read-out: % non-viable cells",21.4%
same,cytotoxicity at 0.05 µM,"primary CML cells; CML#3, 50 nmol/L LBH589, read-out: % non-viable cells",47.8%
same,cytotoxicity at 0.05 µM,"primary CML cells; CML#4, 50 nmol/L LBH589, read-out: % non-viable cells",37.6%
same,client protein levels,[8]; CML cells,"depletion of unmutated or mutant forms of Bcr-Abl, as well as of c-Raf and AKT"
same,hsp90 acetylation and chaperone function,[8]; by inhibiting HDAC 6,induces acetylation and inhibition of hsp90 chaperone function
